In BindingDB's records for patent US20250313563 (The Broad Institute, 2025):
“And” between values parts separate entries of the source, which are not always exact repeats. Equal values may be shown once.

What was measured:
[1] = molecular target: Glycogen synthase kinase-3 alpha (Homo sapiens, UniProt P49840); experiment: TR-FRET Assay
Summary of the method: (§1)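 TR-FRET readout: streptavidin-d2 (40 nM in added detection mix) plus Tb-anti-pSer641 Ab (2 nM in mix). Steps were 30 min compound preincubation, kinase reaction, then EDTA stop.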

[2] = molecular target: Glycogen synthase kinase-3 beta (Homo sapiens, UniProt P49841); experiment: TR-FRET Assay
Summary of the method: as §1

Glycogen synthase kinase-3 beta, sequence (P49841 whole entry): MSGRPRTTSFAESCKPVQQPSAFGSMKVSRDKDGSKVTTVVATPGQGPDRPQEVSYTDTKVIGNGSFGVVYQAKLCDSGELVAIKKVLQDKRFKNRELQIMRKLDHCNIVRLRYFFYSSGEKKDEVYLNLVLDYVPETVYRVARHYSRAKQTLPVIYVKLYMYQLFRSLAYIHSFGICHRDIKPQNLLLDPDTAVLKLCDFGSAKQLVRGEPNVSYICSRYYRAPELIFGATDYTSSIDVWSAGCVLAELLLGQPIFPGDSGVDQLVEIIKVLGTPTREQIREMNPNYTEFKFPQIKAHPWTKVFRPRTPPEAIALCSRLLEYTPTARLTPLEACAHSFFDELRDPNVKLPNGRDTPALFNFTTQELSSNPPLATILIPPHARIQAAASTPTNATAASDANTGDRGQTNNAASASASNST
Glycogen synthase kinase-3 alpha, sequence (P49840 whole entry): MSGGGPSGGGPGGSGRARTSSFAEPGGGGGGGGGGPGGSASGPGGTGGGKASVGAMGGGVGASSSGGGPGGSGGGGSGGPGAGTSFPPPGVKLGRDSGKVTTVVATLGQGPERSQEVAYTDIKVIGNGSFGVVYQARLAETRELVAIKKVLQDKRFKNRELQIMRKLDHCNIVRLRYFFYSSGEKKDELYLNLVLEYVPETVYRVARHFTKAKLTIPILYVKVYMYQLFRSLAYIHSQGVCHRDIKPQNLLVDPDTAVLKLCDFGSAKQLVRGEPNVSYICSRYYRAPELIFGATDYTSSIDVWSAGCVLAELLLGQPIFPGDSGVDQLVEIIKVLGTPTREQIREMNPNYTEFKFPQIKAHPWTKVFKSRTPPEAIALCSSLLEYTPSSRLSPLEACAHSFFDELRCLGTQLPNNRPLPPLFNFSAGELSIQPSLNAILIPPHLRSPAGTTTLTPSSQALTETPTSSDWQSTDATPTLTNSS

Row | SMILES | IC50 [1] | IC50 [2]
1 | CC1CCC12C1=C(N=NC1)NC1=C2C(=O)CC(C)(C)C1 (centres undefined) [US20250313563, Compound 949640] | 100 to 1000 nM | 1000 to 5000 nM
2 | CC[C@@]1(c2cccc(C(F)(F)F)c2)C2=CN=NC2NC2=C1C(=O)N(c1cn(C)nc1C)CC2 (some centres undefined) [US20250313563, Compound 949642] | 100 to 1000 nM | 1000 to 5000 nM
3 | CC[C@]1(c2cccc(-c3ccncc3F)c2)C2=C(CC(C)(C)NC2=O)NC2N=NC(F)=C21 (some centres undefined) [US20250313563, Compound 949643] | > 5000 nM | > 5000 nM
4 | CC[C@]1(c2cccc(-c3cc(C)ncc3F)c2)C2=C(CC(C)(C)NC2=O)NC2N=NC(C(F)(F)F)=C21 (some centres undefined) [US20250313563, Compound 949644] | 100 to 1000 nM | 1000 to 5000 nM
5 | CC[C@@]1(c2cccc(C(C)C)c2)C2=C(CC(C)(C)NC2=O)NC2N=NC(C)=C21 (some centres undefined) [US20250313563, Compound 949646] | > 5000 nM | > 5000 nM
6 | CC[C@]1(c2cccc(N(C)c3ncccn3)c2)C2=C(CC(C)(C)NC2=O)NC2N=NC(F)=C21 (some centres undefined) [US20250313563, Compound 949647] | 100 to 1000 nM | > 5000 nM
7 | CC[C@@]1(c2cccc(N(C)c3ncccn3)c2)C2=C(CC(C)(C)NC2=O)NC2N=NC(F)=C21 (some centres undefined) [US20250313563, Compound 949648] | < 100 nM | < 100 nM and 1000 to 5000 nM
8 | CC[C@]1(c2cccc(C(C)C)c2)C2=C(CC(C)(C)NC2=O)NC2N=NC(C)=C21 (some centres undefined) [US20250313563, Compound 949649] | < 100 nM and 100 to 1000 nM | < 100 nM and 1000 to 5000 nM
9 | CC[C@@]1(c2cccc(-c3cc(C)ncc3F)c2)C2=C(CC(C)(C)NC2=O)NC2N=NC(C(F)(F)F)=C21 (some centres undefined) [US20250313563, Compound 949650] | < 100 nM and 100 to 1000 nM | < 100 nM and 1000 to 5000 nM
10 | CC[C@@]1(c2cccc(C(F)(F)F)c2)C2=C(NC3=NN=CC31)c1ccccc1C2=O (some centres undefined) [US20250313563, Compound 949742] | 100 to 1000 nM | 100 to 1000 nM
11 | CC[C@]1(c2cccc(C(F)(F)F)c2)C2=C(NC3=NN=CC31)c1ccccc1C2=O (some centres undefined) [US20250313563, Compound 949743] | < 100 nM | < 100 nM and 100 to 1000 nM
12 | CCC1(c2cccc(C(C)C)c2)C2=C(CC(C)(C)NC2=O)NC2N=NC(C(F)(F)F)=C21 (centres undefined) [US20250313563, Compound 949747] | < 100 nM | < 100 nM
13 | CCC1(c2cccc(OC)c2)C2=C(CC(C)(C)NC2=O)NC2N=NC(C(F)(F)F)=C21 (centres undefined) [US20250313563, Compound 949748] | < 100 nM | 100 to 1000 nM
14 | CC[C@@]1(c2cccc(C(C)C)c2)C2=CN=NC2NC2=C1C(=O)NC(C)(C)C2 (some centres undefined) [US20250313563, Compound 949752] | > 5000 nM | > 5000 nM
15 | CC[C@@]1(c2ccccc2)C2=CN=NC2NC2=C1C(=O)C[C@]1(CCN(C)C1=O)C2 (some centres undefined) [US20250313563, Compound 949753] | 1000 to 5000 nM | > 5000 nM
16 | CC[C@]1(c2cccc(-c3ccncc3F)c2)C2=C(CC(C)(C)NC2=O)NC2N=NC(Cl)=C21 (some centres undefined) [US20250313563, Compound 949756] | > 5000 nM | > 5000 nM
17 | CC[C@@]1(c2cccc(-c3ccncc3F)c2)C2=C(CC(C)(C)NC2=O)NC2N=NC(Cl)=C21 (some centres undefined) [US20250313563, Compound 949757] | < 100 nM and 100 to 1000 nM | < 100 nM and 1000 to 5000 nM
18 | CC[C@]1(c2ccccc2)C2=CN=NC2NC2=C1C(=O)C[C@]1(CCN(C)C1=O)C2 (some centres undefined) [US20250313563, Compound 949760] | 100 to 1000 nM | > 5000 nM
19 | CC[C@]1(c2cccc(C(C)C)c2)C2=CN=NC2NC2=C1C(=O)NC(C)(C)C2 (some centres undefined) [US20250313563, Compound 949761] | 100 to 1000 nM | 100 to 1000 nM
20 | CCC1(c2cccc(Br)c2)C2=C(N=NC2)NC2=C1C(=O)C(C)(C)C2 (centres undefined) [US20250313563, Compound 949805] | 100 to 1000 nM | 1000 to 5000 nM
21 | CC[C@@]1(c2cccc(C(F)(F)F)c2)C2=CN=NC2NC2=C1C(=O)N(c1ccn(C)n1)CC2 (some centres undefined) [US20250313563, Compound 949836] | 1000 to 5000 nM | > 5000 nM
22 | CCC1(c2cccc(-c3ccnc(C)c3)c2)C2=C(N=NC2)NC2=C1C(=O)C(C)(C)C2 (centres undefined) [US20250313563, Compound 949840] | 100 to 1000 nM | 1000 to 5000 nM
23 | CCn1cc(N2CCC3=C(C2=O)[C@](CC)(c2cccc(C(F)(F)F)c2)C2=CN=NC2N3)cn1 (some centres undefined) [US20250313563, Compound 949867] | < 100 nM | 100 to 1000 nM
24 | CCn1cc(N2CCC3=C(C2=O)[C@](CC)(c2cccc(C(F)(F)F)c2)C2=CN=NC2N3)cn1 (some centres undefined) [US20250313563, Compound 949868] | 100 to 1000 nM | > 5000 nM
25 | CC[C@]1(c2cccc(-c3cnn(C)c3)c2)C2=C(CC(C)(C)NC2=O)NC2N=NC(C(F)F)=C21 (some centres undefined) [US20250313563, Compound 949911] | 100 to 1000 nM | > 5000 nM
26 | CC[C@]1(c2cccc(-c3cc(C)nnc3C)c2)C2=C(CC(C)(C)NC2=O)NC2N=NC(C(F)(F)F)=C21 (some centres undefined) [US20250313563, Compound 949917] | < 100 nM | < 100 nM

Row | SMILES | IC50 [1] | IC50 [2]
27 | CC[C@@]1(c2cccc(-c3cnn(C)c3)c2)C2=C(CC(C)(C)NC2=O)NC2N=NC(C(F)F)=C21 (some centres undefined) [US20250313563, Compound 949919] | < 100 nM | < 100 nM and 100 to 1000 nM
28 | CC[C@]1(c2cccc(-c3cn(C)nc3C)c2)C2=CN=NC2NC2=C1C(=O)NC1(CCC1)C2 (some centres undefined) [US20250313563, Compound 950055] | < 100 nM | < 100 nM and 100 to 1000 nM
29 | CC[C@@]1(c2cccc(C3=C(C)SN(C)C3)c2)C2=CN=NC2NC2=C1C(=O)NC1(CCC1)C2 (some centres undefined) [US20250313563, Compound 950056] | 100 to 1000 nM | > 5000 nM
30 | CC[C@@]1(c2cccc(-c3ccncc3C3CC3)c2)C2=CN=NC2NC2=C1C(=O)NC(C)(C)C2 (some centres undefined) [US20250313563, Compound 950059] | < 100 nM and 100 to 1000 nM | < 100 nM and 1000 to 5000 nM
31 | CC[C@@]1(c2cccc(-c3cnn(C4CC4(F)F)c3)c2)C2=CN=NC2NC2=C1C(=O)NC(C)(C)C2 (some centres undefined) [US20250313563, Compound 950060] | < 100 nM | 100 to 1000 nM
32 | CC[C@@]1(c2cccc(-c3cnn(C(C)C)c3F)c2)C2=CN=NC2NC2=C1C(=O)NC(C)(C)C2 (some centres undefined) [US20250313563, Compound 950061] | 100 to 1000 nM | > 5000 nM
33 | CC[C@@]1(c2cccc(-c3c(C)c(C)nn3C)c2)C2=CN=NC2NC2=C1C(=O)NC(C)(C)C2 (some centres undefined) [US20250313563, Compound 950062] | < 100 nM | 100 to 1000 nM
34 | CCC1(c2cccc(Cc3ncccn3)c2)C2=CN=NC2NC2=C1C(=O)NC(C)(C)C2 (centres undefined) [US20250313563, Compound 950151] | < 100 nM | 1000 to 5000 nM
35 | CC[C@@]1(c2ccccc2)C2=CN=NC2NC2=C1C(=O)C[C@]1(CCNC1=O)C2 (some centres undefined) [US20250313563, Compound 950160] | 1000 to 5000 nM | > 5000 nM
36 | CC[C@]1(c2ccccc2)C2=CN=NC2NC2=C1C(=O)C[C@]1(CCNC1=O)C2 (some centres undefined) [US20250313563, Compound 950161] | 1000 to 5000 nM | > 5000 nM
37 | CC[C@]1(c2cccc(-c3ccnc(C)c3)c2)C2=C(CC(C)(C)NC2=O)NC2N=NC(C(F)F)=C21 (some centres undefined) [US20250313563, Compound 950162] | 100 to 1000 nM | 100 to 1000 nM
38 | CC[C@]1(c2cccc(-c3cn(C)nc3C)c2)C2=CN=NC2NC2=C1C(=O)NC1(CCCC1)C2 (some centres undefined) [US20250313563, Compound 950252] | < 100 nM | < 100 nM and 1000 to 5000 nM
39 | CC[C@@]1(c2cccc(-c3cnn(C(F)F)c3)c2)C2=CN=NC2NC2=C1C(=O)NC(C)(C)C2 (some centres undefined) [US20250313563, Compound 950254] | < 100 nM | 1000 to 5000 nM
40 | CC[C@@]1(c2cccc(C3=C(C)SN(C)C3)c2)C2=CN=NC2NC2=C1C(=O)NC1(CCCC1)C2 (some centres undefined) [US20250313563, Compound 950255] | 100 to 1000 nM | > 5000 nM
41 | CC[C@]1(c2cccc(C(F)(F)F)c2)C2=C(N=NC2)NC2=C1C(=O)C(C)(C)C2 [US20250313563, Compound 950272] | < 100 nM | 100 to 1000 nM
42 | CC[C@]1(c2cccc(-c3ccnc(C)c3)c2)C2=C(N=NC2)NC2=C1C(=O)C(C)(C)C2 [US20250313563, Compound 950282] | < 100 nM | 100 to 1000 nM
43 | CC[C@@]1(c2cccc(-c3ccnc(C)c3)c2)C2=C(N=NC2)NC2=C1C(=O)C(C)(C)C2 [US20250313563, Compound 950283] | 1000 to 5000 nM | > 5000 nM
44 | CCC1(c2cccc(Oc3ncccn3)c2)C2=C(CC(C)(C)NC2=O)NC2N=NC(Cl)=C21 (centres undefined) [US20250313563, Compound 950318] | < 100 nM | < 100 nM
45 | CCC1(c2cccc(-c3ccncc3F)c2)C2=C(CC(C)(C)NC2=O)NC2N=NC(C(F)F)=C21 (centres undefined) [US20250313563, Compound 950320] | < 100 nM | < 100 nM
46 | CCC1(c2cccc(Oc3ncccn3)c2)C2=C(CC(C)(C)NC2=O)NC2N=NC(C(F)(F)F)=C21 (centres undefined) [US20250313563, Compound 950323] | < 100 nM | < 100 nM
47 | CC[C@@]1(c2cccc(C(F)(F)F)c2)C2=CN=NC2NC2=C1C(=O)C[C@]1(CCN(C)C1=O)C2 (some centres undefined) [US20250313563, Compound 950325] | > 5000 nM | > 5000 nM
48 | CC[C@@]1(c2cccc(C(F)(F)F)c2)C2=CN=NC2NC2=C1C(=O)C[C@@]1(CCN(C)C1=O)C2 (some centres undefined) [US20250313563, Compound 950326] | < 100 nM | 100 to 1000 nM
49 | CC[C@]1(c2cccc(C(F)(F)F)c2)C2=CN=NC2NC2=C1C(=O)C[C@@]1(CCNC1=O)C2 (some centres undefined) [US20250313563, Compound 950332] | > 5000 nM | > 5000 nM
50 | CC[C@]1(c2cccc(C(F)(F)F)c2)C2=CN=NC2NC2=C1C(=O)C[C@]1(CCNC1=O)C2 (some centres undefined) [US20250313563, Compound 950333] | < 100 nM | 100 to 1000 nM
51 | Cc1nccc([C@H]2CC[C@@]3(CC2)C2=C(N=NC2)NC2=C3C(=O)CC(C)(C)C2)c1C [US20250313563, Compound 950477] | 100 to 1000 nM | 100 to 1000 nM
52 | Cc1nccc([C@H]2CC[C@]3(CC2)C2=C(N=NC2)NC2=C3C(=O)CC(C)(C)C2)c1C [US20250313563, Compound 950478] | < 100 nM | < 100 nM
